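The compound was tested at five concentrations on cells cultured in 96-well plates, with a 48-hour exposure period. GI50 = concentration required for 50% inhibition of growth.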 Active and inactive are the calls of the source. Cut-off read from the data, not from the text of the source: active = GI50 up to about 1.1 µM and inactive = higher.
Columns and labels:
Assay in all cases: NCI-60 cell line screen, 48 h
ACHN = system: ACHN
U-251 = system: U-251
EKVX = system: EKVX
HOP-92 = system: HOP-92
IGROV-1 = system: IGROV-1
SW-620 = system: SW-620
OVCAR-3 = system: OVCAR-3
CCRF-CEM = system: CCRF-CEM
NCI-H460 = system: NCI-H460
SNB-19 = system: SNB-19
A498 = system: A498
M14 = system: M14
UACC-257 = system: UACC-257
SNB-75 = system: SNB-75
NCI-H522 = system: NCI-H522
RPMI-8226 = system: RPMI-8226
A549 = system: A549
K562 = system: K562
NCI-H23 = system: NCI-H23
UACC-62 = system: UACC-62

Measured: GI50

Cn1c2ccc3cc2c(=S)c2cc(ccc21)OCCOCCOCCOCCOCCOCCO3
inactive: ACHN > 10 µM | U-251 > 10 µM | EKVX > 10 µM | HOP-92 > 10 µM | IGROV-1 > 10 µM | SW-620 > 10 µM | OVCAR-3 > 10 µM | CCRF-CEM > 10 µM | NCI-H460 > 10 µM | SNB-19 > 10 µM | A498 > 10 µM | M14 > 10 µM | UACC-257 > 10 µM | SNB-75 > 10 µM | NCI-H522 > 10 µM | RPMI-8226 > 10 µM | A549 > 10 µM | K562 > 10 µM | NCI-H23 > 10 µM

COCN1C(=O)[C@@H]2C[C@@H](O)CN2C(=O)c2ccccc21
inactive: ACHN > 100 µM | UACC-62 > 100 µM | U-251 > 100 µM | EKVX > 100 µM | HOP-92 > 100 µM | IGROV-1 > 100 µM | SW-620 > 100 µM | CCRF-CEM > 100 µM | NCI-H460 > 100 µM | SNB-19 > 100 µM | A498 > 100 µM | M14 > 100 µM | UACC-257 > 100 µM | SNB-75 > 100 µM | NCI-H522 > 100 µM | RPMI-8226 > 100 µM | A549 > 100 µM | K562 > 100 µM | NCI-H23 > 100 µM

Nc1ccc(S(=O)(=O)NCCS(=O)(=O)O)cc1
inactive: ACHN > 100 µM | UACC-62 > 100 µM | U-251 > 100 µM | EKVX > 100 µM | HOP-92 > 100 µM | IGROV-1 > 100 µM | SW-620 > 100 µM | OVCAR-3 > 100 µM | CCRF-CEM > 100 µM | NCI-H460 > 100 µM | SNB-19 > 100 µM | A498 > 100 µM | M14 > 100 µM | UACC-257 > 100 µM | SNB-75 > 100 µM | NCI-H522 > 100 µM | A549 > 100 µM | K562 > 100 µM | NCI-H23 > 100 µM

Cc1cccc(N2C(=O)C3ON(C(C(N)=O)c4ccccc4)C(c4c5ccccc5c(Cl)c5ccccc45)C3C2=O)c1C (configuration not stated)
inactive: ACHN 9.16 µM | UACC-62 6.84 µM | U-251 8.02 µM | EKVX 9.23 µM | HOP-92 7.89 µM | IGROV-1 11.6 µM | SW-620 3.53 µM | OVCAR-3 8.43 µM | CCRF-CEM 2.55 µM | NCI-H460 9.71 µM | SNB-19 8.85 µM | A498 11.9 µM | M14 7.93 µM | UACC-257 6.87 µM | SNB-75 8.05 µM | NCI-H522 10.5 µM | A549 14.3 µM | K562 12.7 µM | NCI-H23 11.6 µM

COc1cc([C@@H]2C3C(=O)c4ccccc4C3[C@@H](c3cc(OC)c(OC)c(OC)c3)C23Cc2ccccc2C3=O)cc(OC)c1OC (some centres not stated)
inactive: ACHN > 100 µM | U-251 > 100 µM | EKVX > 100 µM | HOP-92 1.87 µM | IGROV-1 24.3 µM | SW-620 > 100 µM | OVCAR-3 > 100 µM | CCRF-CEM > 100 µM | NCI-H460 > 100 µM | SNB-19 > 100 µM | A498 > 100 µM | M14 > 100 µM | UACC-257 > 100 µM | SNB-75 21.8 µM | NCI-H522 > 100 µM | RPMI-8226 37.8 µM | A549 > 100 µM | K562 > 100 µM | NCI-H23 > 100 µM

N/C(=N\c1ccc(Cl)cc1)NS(=O)(=O)c1ccc(-c2ncccc2C(F)(F)F)s1
inactive: ACHN 16 µM | UACC-62 11.3 µM | U-251 13.1 µM | EKVX 4.61 µM | HOP-92 14.7 µM | IGROV-1 12 µM | SW-620 15.3 µM | OVCAR-3 17.6 µM | NCI-H460 13.1 µM | SNB-19 18.6 µM | A498 16.7 µM | M14 14.6 µM | UACC-257 3.17 µM | SNB-75 18.8 µM | NCI-H522 10.4 µM | RPMI-8226 17.3 µM | A549 15.2 µM | K562 13.1 µM | NCI-H23 13.5 µM

CO/C(N)=C(C#N)/N=C/c1ccco1
inactive: ACHN > 100 µM | UACC-62 > 100 µM | U-251 > 100 µM | EKVX > 100 µM | HOP-92 > 100 µM | IGROV-1 > 100 µM | SW-620 > 100 µM | OVCAR-3 > 100 µM | CCRF-CEM 67.8 µM | A498 > 100 µM | M14 > 100 µM | UACC-257 > 100 µM | SNB-75 > 100 µM | NCI-H522 > 100 µM | RPMI-8226 > 100 µM | A549 > 100 µM | K562 > 100 µM | NCI-H23 > 100 µM
